According to patent US7939521B2, “2-arylpropionic acid derivatives and pharmaceutical compositions containing them” (DompePHA.R.MA S.p.A., priority 2004, dated 2011):

What was measured:
[1] = test system: C5a induced human PMN chemotaxis; assay: C5a induced chemotaxis of human PMNs (microchamber assay); format: cell-based; settings: for inhibitory activity on C5a induced PMN chemotaxis at high drug concentration: c=10^−6M; for C5a (10^−6M): drug concentration 10^−6M, PMN chemotaxis, Table 1, n.a. = not active
[2] = test system: CXCL8 induced human PMN chemotaxis; assay: IL-8 (CXCL8) induced PMN chemotaxis; format: cell-based; settings: drug concentration 10^−8M, Table 1
[3] = test system: C5a induced human PMN chemotaxis; settings: previously reported; cited from earlier work
[4] = test system: C5a induced human PMN chemotaxis; assay: C5a induced chemotaxis of human PMNs (microchamber assay); format: cell-based; settings: for inhibitory activity on C5a: compounds lacking the additional hydrogen bond acceptor group; for inhibition at 0.1 µM / inhibition at 0.01 µM: Homo sapiens, read-out: % inhibition C5a induced PMN migration; for inhibition at 0.1 µM: drug concentration: 10^−7 M (footnote a); for inhibition at 0.01 µM: drug concentration: 10^−8 M (footnote b)
Experimental: The compounds of the invention of formula (I) were evaluated in vitro for their ability to inhibit chemotaxis of polymorphonucleate leukocytes (hereinafter referred to as PMNs) and monocytes induced by the fractions of the complement C5a and C5a-desArg. For this purpose, to isolate the PMNs from heparinized human blood, taken from healthy adult volunteers, mononucleates were removed by means of sedimentation on dextran (according to the procedure disclosed by W. J. Ming et al., J. Immunol., 138, 1469, 1987) and red blood cells by a hypotonic solution. The cell vitality was calculated by exclusion with Trypan blue, whilst the ratio of the circulating polymorphonucleates was estimated on the cytocentrifugate after staining with Diff Quick.
Human recombinant fractions C5a and C5a-desArg (Sigma) were used as stimulating agents in the chemotaxis experiments, giving practically identical results.
The lyophilized C5a was dissolved in a volume of HBSS containing 0.2% bovin serum albumin BSA so thus to obtain a stock solution having a concentration of 10^−5 M to be diluted in HBSS to a concentration of 10^−9 M, for the chemotaxis assays.
In the chemotaxis experiments, the PMNs were incubated with the compounds of the invention of formula (I) for 15′ at 37° C. in an atmosphere containing 5% CO2. The chemotactic activity of the C5a was evaluated on human circulating polymorphonucleates (PMNs) resuspended in HBSS at a concentration of 1.5×10^6 PMNs per mL.
During the chemotaxis assay (according to W. Falket et al., J. Immunol. Methods, 33, 239, 1980) PVP-free filters with a porosity of 5 μm and microchambers suitable for replication were used.
The compounds of the invention in formula (I) were evaluated at a concentration ranging between 10^−7 and 10^−10 M; for this purpose they were added, at the same concentration, both to the lower pores and the upper pores of the microchamber. The wells in the lower part contain the solution of C5a or the simple carrier, those in the upper part contain the suspension of PMNs.
Inhibition of C5a-induced chemotactic activity by the individual compounds of the invention of formula (I) was evaluated by incubating the microchamber for the chemotaxis for 60 min at 37° C. in an atmosphere containing 5% CO2.
By way of example, the inhibition data of the chemotaxis of PMN (concentration range between 10^−7 and 10^−8 M) of some representative compounds of the invention are reported in Table 2.

Row | SMILES | inhibition at 0.1 µM [4] [%] | inhibition at 0.01 µM [4] [%] | further results
1 | C[C@@H](C(N)=O)c1cccc(C(=O)c2ccccc2)c1 [(R)-2-(3-benzoylphenyl)propionamide] |  |  | inhibitory activity on C5a induced PMN chemotaxis at high drug concentration [1]: moderate inhibitory activity; C5a (10^−6M) [1]: 30 ± 2; IL-8 (10^−8M) [2]: 37 ± 7; activity on the C5a induced PMN chemotaxis [3]: negligible activity
2 | CC(C)c1cccc([C@@H](C)C(N)=O)c1 [(R)-2-(3-isopropylphenyl)propionamide, reference compound] |  |  | inhibitory activity on C5a [4]: do not exhibit any inhibitory activity; IL-8 (10^−8M) [2]: 60 ± 5
3 | CC(C)Cc1ccc([C@@H](C)C(N)=O)cc1 [(R)-2-(4-isobutylphenyl)propionamide, reference compound] |  |  | inhibitory activity on C5a [4]: do not exhibit any inhibitory activity; IL-8 (10^−8M) [2]: 57 ± 12
4 | CC(C)C(=O)c1cccc([C@@H](C)C(N)=O)c1 [Example 1, (R)-2-[3-(isobutyryl)phenyl]propionamide] | 50 ± 7 |  | 
5 | C[C@@H](C(N)=O)c1cccc(C(=O)C2CCCC2)c1 [Example 2, (R)-2-[3-(cyclopentanecarbonyl)phenyl]propionamide] | 59 ± 16 |  | 
6 | C[C@@H](C(N)=O)c1cccc(C(=O)c2ccco2)c1 [Example 3] | 65 ± 6 |  | 
7 | C[C@@H](C(N)=O)c1cccc(C(=O)c2cc3ccccc3o2)c1 [Example 4, (R)-2-[3-(2-benzofuran-2-carbonyl)phenyl]propionamide] |  | 55 ± 7 | 
8 | C[C@@H](C(N)=O)c1cccc(C(=O)c2nccs2)c1 [Example 5, (R)-2-[3-(thiazole-2-ylcarbonyl)phenyl]propionamide] |  | 31 ± 7 | 
9 | C[C@@H](C(N)=O)c1cccc(C(=O)c2ncco2)c1 [Example 6, (R)-2-[3-(1,3-oxazol-2-ylcarbonyl)phenyl]propionamide] |  | 26 ± 6 | 
10 | C[C@@H](C(N)=O)c1cccc(C(=O)Nc2c(Cl)cccc2Cl)c1 [Example 7, 3-((R)-1-carbamoylethyl)-N-(2,6-dichlorophenyl)benzamide] | 57 ± 8 |  | 
11 | Cc1cccc(C)c1NC(=O)c1cccc([C@@H](C)C(N)=O)c1 [Example 8, 3-((R)-1-carbamoylethyl)-N-(2,6-dimethylphenyl)benzamide] | 65 ± 10 |  | 
12 | C[C@@H](C(N)=O)c1cccc(C(=O)Nc2ncccc2Cl)c1 [Example 9, 3-((R)-1-carbamoylethyl)-N-(3-chloropyridin-2-yl)benzamide] | 40 ± 2 |  | 
13 | COc1ccccc1Oc1cccc([C@@H](C)C(N)=O)c1 [Example 10, (R)-2-[3-(2-methoxyphenoxy)phenyl]propionamide] |  | 55 ± 6 | 
14 | C[C@@H](C(N)=O)c1cccc(Nc2ccccc2Cl)c1 [Example 11, (R)-2-[3-(2-chlorophenylamino)phenyl]propionamide] | 42 ± 5 |  | 
15 | COc1ccccc1Nc1cccc([C@@H](C)C(N)=O)c1 [Example 12, (R)-2-[3-(2-methoxyphenylamino)phenyl]propionamide] | 60 ± 8 |  | 
16 | C[C@@H](C(N)=O)c1cccc(Nc2ccccn2)c1 [Example 13, (R)-2-[3-(pyridin-2-ylamino)phenyl]propionamide] | 38 ± 3 |  | 
17 | C[C@@H](C(N)=O)c1cccc(-c2ncco2)c1 [Example 14] | 63 ± 9 |  | 
18 | C[C@@H](C(N)=O)c1cccc(-c2ccco2)c1 [Example 15] | 41 ± 7 |  | 
19 | C[C@@H](C(N)=O)c1ccc2c(c1)NC(=O)CC2 [Example 16, (R)-2-(oxo-1,2,3,4-tetrahydroquinolin-7-yl)propionamide] |  | 45 ± 10 | 
20 | C[C@@H](C(N)=O)c1cccc(S(=O)(=O)c2ccccc2)c1 [Example 17, (R)-2-(3-benzenesulfonylphenyl)propionamide] | 54 ± 7 |  | 

Row | SMILES | inhibition at 0.1 µM [4] [%] | inhibition at 0.01 µM [4] [%] | further results
21 | CC(=O)Nc1cccc(C(C)C(N)=O)c1 (stereo not drawn) [Example 18, 2-(3-acetylamino)phenyl propionamide] | 83 ± 2 |  | 
22 | CC(C(N)=O)c1cccc(NC(=O)c2ccccc2)c1 (stereo not drawn) [Example 19, 2-(3-benzoylamino)phenyl propionamide] | 34 ± 11 |  | 
23 | C[C@@H](C(=O)NS(C)(=O)=O)c1cccc(C(=O)C2CCCC2)c1 [Example 20, N—[(R)-2-(3-cyclopentanecarbonylphenyl)propionyl]methanesulfonamide] | 22 ± 2 |  | 
24 | C[C@@H](C(=O)NS(C)(=O)=O)c1cccc(C(=O)c2ccco2)c1 [Example 21] |  | 61 ± 15 | 
25 | Cc1ccc(C(=O)c2cccc([C@@H](C)C(=O)NS(C)(=O)=O)c2)o1 [Example 22] |  | 53 ± 6 | 
26 | C[C@@H](C(=O)NS(C)(=O)=O)c1cccc(C(=O)c2cccs2)c1 [Example 23] | 37 ± 11 |  | 
27 | C[C@@H](C(=O)NS(C)(=O)=O)c1cccc(C(=O)c2cc3ccccc3o2)c1 [Example 24] |  |  | % inhibition C5a induced PMN migration ([4]; drug concentration not marked): 53 ± 5%
28 | C[C@@H](C(=O)NS(C)(=O)=O)c1cccc(C(=O)c2ncco2)c1 [Example 25] | 38 ± 8 |  | 
29 | C[C@@H](C(=O)Nc1ccccn1)c1cccc(C(=O)c2ccco2)c1 [Example 26, (R)-2-[3-(furan-2-carbonyl)phenyl]-N-pyrid-2-yl propionamide] |  | 45 ± 9 | 
30 | C[C@@H](C(=O)Nc1nccs1)c1cccc(C(=O)c2ccco2)c1 [Example 27, (R)-2-[3-(furan-2-carbonyl)phenyl]-N-(2H-thiazol-2-yl)propionamide] |  | 60 ± 5 | 
31 | C[C@@H](C(=O)Nc1nc(C(F)(F)F)cs1)c1cccc(C(=O)c2ccco2)c1 [Example 28, (R)-2-[3-(furan-2-carbonyl)phenyl]-N-(4-trifluoromethyl-2H-thiazol-2-yl)propionamide] |  | 49 ± 9 | 
32 | C[C@@H](C(=O)Nc1nc(C(F)(F)F)cs1)c1cccc(C(=O)c2cc3ccccc3o2)c1 [Example 29, (R)-2-[3-(benzofuran-2-carbonyl)phenyl]-N-(4-trifluoromethyl-2H-thiazol-2-yl)propionamide] | 40 ± 12 |  | 
33 | C[C@@H](C(=O)Nc1ccccn1)c1cccc(C(=O)C2CCCC2)c1 [Example 30, (R)-2-(3-cyclopentanecarbonylphenyl)-N-pyrid-2-ylpropionamide] |  | 51 ± 5 | 
34 | C[C@@H](C(=O)NO)c1cccc(C(=O)c2ccco2)c1 [Example 31, (R)-2-[3-(furan-2-carbonyl)phenyl]-N-hydroxypropionamide] |  | 70 ± 5 | 
35 | C[C@@H](C(=O)NO)c1cccc(C(=O)c2nccs2)c1 [Example 32, (R)-2-[3-(thiazole-2-carbonyl)phenyl]-N-hydroxypropionamide] |  | 30 ± 2 | 
36 | CC(NC(=O)[C@H](C)c1cccc(C(=O)c2ccco2)c1)C(=O)O (stereo partly drawn) [Example 33, 2-{(R)-2-[3-(furan-2-carbonyl)phenyl]propionylamino}propionic acid] | 40 ± 5 |  | 
37 | C[C@@H](C(=O)NCC(=O)O)c1cccc(C(=O)c2ccco2)c1 [Example 34] | 51 ± 7 |  | 
38 | C[C@@H](C(=O)NS(C)(=O)=O)c1cccc(C(=O)c2ccccc2)c1 [N-[(R)-2-(3-benzoylphenyl)propionyl]methanesulfonamide] |  |  | inhibitory activity on C5a induced PMN chemotaxis at high drug concentration [1]: moderate inhibitory activity; C5a (10^−6M) [1]: 20 ± 5; IL-8 (10^−8M) [2]: 38 ± 5; activity on the C5a induced PMN chemotaxis [3]: negligible activity
39 | CC(C)Cc1ccc([C@@H](C)C(=O)NS(C)(=O)=O)cc1 [N-[(R)-2-(4-isobutylphenyl)propionyl]methanesulfonamide, reference compound] |  |  | inhibitory activity on C5a [4]: do not exhibit any inhibitory activity; IL-8 (10^−8M) [2]: 65 ± 5
